Data published in patent US20190069549A1, “HERBICIDAL COMPOSITIONS CONTAINING PYRIDINE CARBOXYLIC ACIDS OR DERIVATIVES THEREOF, WITH GLYPHOSATE OR GLUFOSINATE, OR DERIVATIVES THEREOF” (Dow AgroSciences LLC, priority 2017, published 2019).

Columns and labels:
Test in all cases: Postemergence herbicidal activity, greenhouse trial (visual injury)
Format in all cases: in vivo
[1] = tested on: Zea mays (maize/corn), ZEAMX; conditions: 20-22 d
Experimental: (§1) Seeds of the desired test plant species were planted in Sun Gro MetroMix® 360 planting mixture, which typically has a pH of 6.0 to 6.8 and an organic matter content of about 30 percent, in plastic pots with a surface area of 103.2 square centimeters (cm^2). When required to ensure good germination and healthy plants, a fungicide treatment and/or other chemical or physical treatment was applied. The plants were grown for 7-36 days (d) in a greenhouse with an approximate 14-hour (h) photoperiod which was maintained at about 23° C. during the day and 22° C. during the night. Nutrients and water were added on a regular basis and supplemental lighting was provided with overhead metal halide 1000-Watt lamps as necessary. The plants were employed for testing when they reached the second or third true leaf stage.
(§2) Weighed amounts of technical material were dissolved in a volume of 97:3 volume per volume (v/v) acetone/dimethyl sulfoxide (DMSO) to make stock solutions. […] The concentrated stock solutions were diluted with an aqueous mixture of 1.5% v/v of Agri-dex crop oil concentrate to provide the appropriate application rates. Compound requirements are based upon a 12 milliliter (mL) application volume at a rate of 187 liters per hectare (L/ha). Spray solutions of the experimental compound mixtures were prepared by adding the stock solutions to the appropriate amount of dilution solution to form a 12 mL spray solution in two-way combinations. Formulated compounds were applied to the plant material with an overhead Mandel track sprayer equipped with 8002E nozzles calibrated to deliver 187 L/ha over an application area of 0.503 square meters (m^2) at a spray height of 18 inches (43 centimeters (cm)) above average plant canopy. Control plants were sprayed in the same manner with the solvent blank. Application rates for component (a) are in g ae/ha, and application rates for component (b) are in g ai/ha.
(§3) The treated plants and control plants were placed in a greenhouse as described above and watered by sub-irrigation to prevent wash-off of the test compounds. After 20-22 d, the condition of the test plants as compared with that of the control plants was determined visually and scored on a scale of 0 to 100 percent where 0 corresponds to no injury and 100 corresponds to complete kill. The condition of the test plants was compared with that of the control plants as determined visually and scored on a scale of 0 to 100 percent, where 0 corresponds to no injury and 100 corresponds to complete kill. Colby' s equation was used to determine the herbicidal effects expected from the mixtures.
(§4) Compound 1 was formulated as an EC and was combined with glyphosate or glufosinate and applied to weeds, and the phytotoxicity of the herbicidal composition was measured.

[2] = tested on: Helianthus annuus (sunflower), HELAN; conditions: 20-22 d
Experimental: as §1, §2, §3, §4

[3] = tested on: Brassica napus (winter rape), BRSNW; conditions: 20-22 d
Experimental: as §1, §2, §3, §4

[4] = tested on: Viola tricolor (wild pansy), VIOTR; conditions: 20-22 d
Experimental: as §1, §2, §3, §4

[5] = tested on: Triticum aestivum (winter wheat), TRZAW; conditions: 20-22 d
Experimental: as §1, §2, §3, §4

[6] = tested on: Abutilon theophrasti (velvetleaf), ABUTH; conditions: 20-22 d
Experimental: as §1, §2, §3, §4

[7] = tested on: Cirsium arvense (thistle), CIRAR; conditions: 20-22 d
Experimental: as §1, §2, §3, §4

[8] = tested on: Digitaria sanguinalis (large crabgrass), DIGSA; conditions: 20-22 d
Experimental: as §1, §2, §3, §4

[9] = tested on: Polygonum convolvulus (wild buckwheat), POLCO; conditions: 20-22 d
Experimental: as §1, §2, §3, §4

[10] = tested on: Brassica rapa (turnip), BRSRR; conditions: 20-22 d
Experimental: as §1, §2, §3, §4

[11] = tested on: Brassica juncea (brown mustard), BRSJU; conditions: 5 g ae/ha alone, 20-22 d, Table 2
Experimental: as §1, §2, §3, §4

[12] = tested on: Brassica alboglabra (chinese kale), BRSAG; conditions: 5 g ae/ha alone, 20-22 d, Table 2
Experimental: as §1, §2, §3, §4

[13] = tested on: Brassica napus (spring rape; Roundup Ready), BRSNN-RR; conditions: 5 g ae/ha alone, 20-22 d, Table 2
Experimental: as §1, §2, §3, §4

O=C(O)CNCP(=O)(O)O [Glyphosate, N-(phosphonomethyl)glycine]
% Visual Injury ([1]; 210 g ai/ha alone, Table 1): 0% | % Visual Injury ([2]; 210 g ai/ha alone, Table 1): 65% | % Visual Injury ([3]; BRSNW* (retest), 210 g ai/ha alone, Table 1): 30% | % Visual Injury ([3]; BRSNW, 210 g ai/ha alone, Table 1): 20% | % Visual Injury ([4]; 210 g ai/ha alone, Table 1): 50% | % Visual Injury ([5]; 210 g ai/ha alone, Table 1): 75% | % Visual Injury ([6]; 210 g ai/ha alone, Table 1): 60% | % Visual Injury ([7]; 210 g ai/ha alone, Table 1): 25% | % Visual Injury ([8]; 210 g ai/ha alone, Table 1): 70% | % Visual Injury ([9]; 210 g ai/ha alone, Table 1): 45% | % Visual Injury ([10]; 210 g ai/ha alone, Table 1): 65%

Nc1c(F)c(-c2ccc3cc[nH]c3c2F)nc(C(=O)O)c1Cl [Compound 1]
% Visual Injury ([1]; 5 g ae/ha alone, Table 1): 0% | % Visual Injury ([1]; 5 g ae/ha alone, Table 2): 0% | % Visual Injury ([2]; 5 g ae/ha alone, Table 1): 70% | % Visual Injury ([2]; 5 g ae/ha alone, Table 2): 70% | % Visual Injury ([3]; BRSNW* (retest), 5 g ae/ha alone, Table 1): 50% | % Visual Injury ([3]; BRSNW* (retest), 5 g ae/ha alone, Table 2): 30% | % Visual Injury ([3]; BRSNW, 5 g ae/ha alone, Table 1): 30% | % Visual Injury ([3]; BRSNW, 5 g ae/ha alone, Table 2): 50% | % Visual Injury [11]: 60% | % Visual Injury ([4]; 5 g ae/ha alone, Table 1): 5% | % Visual Injury ([4]; 5 g ae/ha alone, Table 2): 5% | % Visual Injury ([5]; 5 g ae/ha alone, Table 1): 5% | % Visual Injury ([5]; 5 g ae/ha alone, Table 2): 5% | % Visual Injury ([6]; 5 g ae/ha alone, Table 1): 60% | % Visual Injury ([6]; 5 g ae/ha alone, Table 2): 60% | % Visual Injury ([7]; 5 g ae/ha alone, Table 1): 10% | % Visual Injury ([7]; 5 g ae/ha alone, Table 2): 10% | % Visual Injury ([8]; 5 g ae/ha alone, Table 1): 5% | % Visual Injury ([8]; 5 g ae/ha alone, Table 2): 5% | % Visual Injury ([9]; 5 g ae/ha alone, Table 1): 65% | % Visual Injury ([9]; 5 g ae/ha alone, Table 2): 65% | % Visual Injury ([10]; 5 g ae/ha alone, Table 1): 50% | % Visual Injury ([10]; 5 g ae/ha alone, Table 2): 50% | % Visual Injury [12]: 15% | % Visual Injury [13]: 35%
